The structures appear in SMILES notation.

The assay has as its target T1, human GPR91 receptor (Homo sapiens, UniProt Q9BXA5).
T1 construct: expressed in transfected cells; host or cells: CHO-K1 NFAT cells
T1 sequence (Q9BXA5 1-334): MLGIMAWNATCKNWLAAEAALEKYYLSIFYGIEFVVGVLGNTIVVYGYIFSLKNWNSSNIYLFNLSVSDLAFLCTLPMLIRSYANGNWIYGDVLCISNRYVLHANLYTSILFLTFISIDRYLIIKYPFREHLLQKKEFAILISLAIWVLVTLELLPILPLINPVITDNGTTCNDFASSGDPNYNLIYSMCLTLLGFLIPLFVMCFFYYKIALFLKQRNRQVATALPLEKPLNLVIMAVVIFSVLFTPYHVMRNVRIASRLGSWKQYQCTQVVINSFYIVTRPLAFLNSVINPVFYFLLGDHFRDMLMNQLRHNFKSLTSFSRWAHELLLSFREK
The assay is described as follows: Human GPR91 calcium mobilization assay. Format: cell-based. The note with it: CHO-K1 NFAT cells over expressing human GPR91 receptor; Fluo4 AM; agonist sodium succinate; flex station; read-out: hGPR91 IC50 (μM)*. The method, then:
Human GPR91 Calcium Mobilization Assay
To determine IC50 in CHO NFAT cells over expressing human GPR91 receptor calcium mobilization assay in flex station mode was carried out.
Grow CHO-K1 NFAT cells over expressing human GPR91 receptors in alpha MEM media were supplemented with 10% FBS (heat inactivated), 0.5 mg/ml of G-418, 0.5 mg/ml of Zeocin and 0.6 mg/ml of Hygromycin B.
The cells were seeded at least 21 hours before the experiment at the density of 25000/well in 96 well plate (Corning cat #no. 3603). It was made sure that cells were at least 95% confluent on the day of assay. No antibiotics were used for seeding purpose.
On the day of assay the media was discarded from plates and plates were washed with 100 μl of HBSS assay buffer. The plates were loaded with Fluo4 AM at 2 μM concentration. Pluronic F-127 dye was solubilized in calcium assay buffer containing 0.1% BSA, i.e., 20 μl dye+20 μl Pluronic F127 for 10 ml. Appropriate amounts of 100× probenecid was added to the loading mixture 1× final (100 μl per 10 ml). Total volume of dye loaded was made 100 μl. The plate was then wrapped in aluminium foil to protect from light and were incubated for 90 mins at 37 degrees in cell culture incubator. At the end of incubation the plates was washed again with 100 μl of HBSS buffer without BSA and 75 μl of HBSS buffer was added (without BSA) to the plate.
Further, 8 point-Dose response curve of the compounds of the present disclosure was prepared in 100% DMSO followed by 57.14-fold dilution to 1.75× in 1.75% DMSO in assay buffer. 100 μL of 1.75×NCE was added to the wells as shown below and incubated at room temp on orbital shaker at 300 rpm for 15 min. Flexstation [excitation @ 485 nm and emission @ 525 nm] for a total time of 60 seconds. 25 μL of 8× agonist (800 μM sodium succinate) was added to each well using the flexstation after establishing the baseline for 20 sec, Measurement—Max-Min over 60 sec. Using the above protocol results obtained are tabulate din the Table 1 below: […]
Turning to `O=C(O)CCc1cccc(Oc2ccc(Oc3ccc4[nH]ncc4c3)cc2C(F)(F)F)c1` [Compound A-45, 3-[3-[4-(1H-indazol-5-yloxy)-2-(trifluoromethyl)phenoxy]phenyl]propanoic acid], the IC50 (commonly the concentration at which inhibition is half-maximal) is less than 5 µM.
The same measure for `N#Cc1n[nH]c2ccc(Oc3ccc(Oc4cccc(CC(=O)O)c4)c(C(F)(F)F)c3)cc12` [Compound A-46, 2-[3-[4-[(3-cyano-1H-indazol-5-yl)oxy]-2-(trifluoromethyl)phenoxy]phenyl]acetic acid]: less than 5 µM.
With `O=C(O)Cc1cccc(Oc2ccc(Oc3ccc4[nH]nc(C(=O)O)c4c3)cc2C(F)(F)F)c1` [Compound A-47, 5-[4-[3-(carboxymethyl)phenoxy]-3-(trifluoromethyl)phenoxy]-1H-indazole-3-carboxylic acid] the figure was less than 5 µM; with `O=C(O)Cc1cccc(Oc2ccc(Oc3cccc4[nH]ncc34)cc2C(F)(F)F)c1` [Compound A-48, 2-[3-[4-(1H-indazol-4-yloxy)-2-(trifluoromethyl)phenoxy]phenyl]acetic acid], less than 5 µM.
With `O=C(O)Cc1cccc(Oc2ccc(Oc3cccc4cncn34)cc2C(F)(F)F)c1` [Compound B-1, 2-[3-[4-imidazo[1,5-a]pyridin-5-yloxy-2-(trifluoromethyl)phenoxy]phenyl]acetic acid] the figure was less than 5 µM; with `O=C(O)Cc1cccc(Oc2ccc(Oc3cccn4cncc34)cc2C(F)(F)F)c1` [Compound B-2, 2-[3-[4-imidazo[1,5-a]pyridin-8-yloxy-2-(trifluoromethyl)phenoxy]phenyl]acetic acid], less than 5 µM.
For the compound `Cc1ncc2cccc(Oc3ccc(Oc4cccc(CC(=O)O)c4)c(C(F)(F)F)c3)n12` [Compound B-3, 2-[3-[4-(3-methylimidazo[1,5-a]pyridin-5-yl)oxy-2-(trifluoromethyl)phenoxy]phenyl]acetic acid], the IC50 was less than 5 µM.
Consider `Cc1ncc2c(Oc3ccc(Oc4cccc(CC(=O)O)c4)c(C(F)(F)F)c3)cccn12` [Compound B-4, 2-[3-[4-(3-methylimidazo[1,5-a]pyridin-8-yl)oxy-2-(trifluoromethyl)phenoxy]phenyl]acetic acid], for which the IC50 is 5 to 10 µM.
With `O=C(O)Cc1cccc(Oc2ccc(Oc3ccc4cnc(C5COC5)n4c3)cc2C(F)(F)F)c1` [Compound B-5, 2-[3-[4-[3-(oxetan-3-yl)imidazo[1,5-a]pyridin-6-yl]oxy-2-(trifluoromethyl)phenoxy]phenyl]acetic acid] the figure was 5 to 10 µM; with `NC(=O)CCc1cccc(Oc2ccc(Oc3cccc4ccncc34)cc2C(F)(F)F)c1` [Compound C-2, 3-[3-[4-(8-isoquinolyloxy)-2-(trifluoromethyl)phenoxy]phenyl]propanamide], 5 to 10 µM.
With `NC(=O)Cc1cccc(Oc2ccc(Oc3cccc4ccncc34)cc2C(F)(F)F)c1` [Compound C-3, 2-[3-[4-(8-isoquinolyloxy)-2-(trifluoromethyl)phenoxy]phenyl]acetamide] the figure was less than 5 µM; with `FC(F)(F)c1cc(Oc2cccc3ccncc23)ccc1Oc1cccc(CCc2nnc[nH]2)c1` [Compound D-1, 8-[4-[3-[2-(4H-1,2,4-triazol-3-yl)ethyl]phenoxy]-3-(trifluoromethyl)phenoxy]isoquinoline], greater than 10 µM.
With `FC(F)(F)c1cc(Oc2cccc3ccncc23)ccc1Oc1cccc(CCc2nnn[nH]2)c1` [Compound D-2, 8-[4-[3-[2-(1H-tetrazol-5-yl)ethyl]phenoxy]-3-(trifluoromethyl)phenoxy]isoquinoline] the figure was 5 to 10 µM; with `FC(F)(F)c1cc(Oc2cccc3ccncc23)ccc1Oc1cccc(Cc2nnn[nH]2)c1` [Compound D-3, 8-[4-[3-(1H-tetrazol-5-ylmethyl)phenoxy]-3-(trifluoromethyl)phenoxy]isoquinoline], 5 to 10 µM.
With `O=C(O)Cc1cccc(Oc2ccc(Oc3cccc4ccncc34)c(C(F)(F)F)c2)c1` [Compound E-1, 2-[3-[4-(8-isoquinolyloxy)-3-(trifluoromethyl)phenoxy]phenyl]acetic acid], the IC50 is greater than 10 µM.
